Assay results: patent US20220125885A1, “GLUCAGON ANALOG AGONISTS AND METHODS OF USING THE SAME” (Eli Lilly and Company, priority 2019, published 2022)
Where a SMILES comes first, the peptide text is derived from it. Where no end group is shown, it is not given here. [ ]: non-standard residue; d: D form. 4Pal = N[C@@H](Cc1ccncc1)C(=O)O; Dab = NCC[C@H](N)C(=O)O; Aib = CC(C)(N)C(=O)O

Assays:
[1] = target: T1, human GLP-1 receptor (hGLP-1R) (Homo sapiens, UniProt P43220); experiment: cAMP functional activity assay, hGLP-1R HEK-293 cells; type: cell-based; conditions: HEK293; percent of response to 10 nM GLP-1(7-36)NH2; mean ± SEM
T1 construct: expressed in transfected cells; host or cells: HEK-293 clonal cell line

[2] = in vivo; conditions: male, Yucatan miniature swine, pig, sc, 10 ug/kg
Method: 1. […] The compounds and an analog as an internal standard are extracted from […] by antibody or protein precipitations. The intact mass of the compounds are detected by a Q Exactive® Orbitrap® Mass Spectrometer (Thermo Fisher Scientific; Waltham, Mass.). 2. […] Blood is collected at pre-dose, 2, 5, 10, 15, 20, 25, 30, 45, 60, 75, 90, 120 and 150 minutes post-dose, and plasma is obtained for pharmacokinetic characterization. […] Blood is collected at pre-dose, 2, 5, 10, 15, 20, 25, 30, 45, 60, 75, 90, 120 and 150 minutes postdose, and plasma is obtained for pharmacokinetic characterization.

[3] = test system: CD8+ T cell-depleted peripheral blood mononuclear cells (CD4+ T cells); experiment: CD4+ T cell assay (immunogenicity); type: cell-based, human; conditions: Cell Division Index; positive donors only
Method: 1. CD4+ T Cell Assay: to assess the propensity for a clinical immunogenic response to the G compounds of Examples 1-4, CD8+ T cell-depleted peripheral blood mononuclear cells (PBMC's) are prepared and labeled with carboxyfluorescein diacetate succinimidyl ester (CFSE; Invitrogen) from a cohort of 10 healthy donors with diverse human leukocyte antigen (HLA) class II haplotypes. Each donor is tested in triplicate with 2.0 mL media control, keyhole limpet haemocyanin (KLH; 0.33 μM), and the compounds of Examples 1-4 (10 μM). Cultures are incubated for 7 days at 37° C. with 5% CO2. On day 7, samples are analyzed by flow cytometry using a BD LSR II Fortessa (Becton Dickinson; Franklin Lakes, N.J.), equipped with a high throughput sampler (HTS). Data is analyzed using FlowJo® Software (FlowJo, LLC/TreeStar; Ashland, Oreg.).
Protein therapeutics that induce less than 30% positive response in the CD4+ T cell proliferation assay are associated with a low risk of immunogenicity.

[4] = target: T2, hGCGR (Homo sapiens, UniProt P47871); experiment: cAMP functional activity assay, hGCGR HEK-293 cells; type: cell-based; conditions: HEK293; percent of response to 1 nM Glucagon; mean ± SEM
T2 construct: expressed in transfected cells; host or cells: HEK-293 clonal cell line
Method: (§1) After a sixty-minute incubation at room temperature, the resulting increase in intracellular cAMP is quantitatively determined using a cAMP Dynamic 2 HTRF Assay Kit (62AM4PEJ; CisBio; Codolet, FR). Briefly, cAMP levels within the cell are detected by adding a cAMP-d2 conjugate in cell lysis buffer (10 μl) followed by an anti-cAMP-Eu3+-Cryptate antibody, also in cell lysis buffer (10 μl). […] A relative EC50 value and percent top (Emax) are derived by non-linear regression analysis using the percent maximal response vs. the concentration of peptide added, fitted to a four-parameter logistic equation.

[5] = target: T3, human GIP receptor (hGIP-R) (Homo sapiens, UniProt P48546); experiment: cAMP functional activity assay, hGIP-R HEK-293 cells; type: cell-based; conditions: for Emax at 9.95 µM: HEK293, percent of response to 10 nM GIP(1-42)NH2, Examples at 9.95 μM, read-out: Emax hGIPR; for EC50: in the presence of FBS and BSA, read-out: cAMP EC50 hGIPR
T3 construct: expressed in transfected cells; host or cells: HEK-293 clonal cell line
T3 sequence (P48546 22-466): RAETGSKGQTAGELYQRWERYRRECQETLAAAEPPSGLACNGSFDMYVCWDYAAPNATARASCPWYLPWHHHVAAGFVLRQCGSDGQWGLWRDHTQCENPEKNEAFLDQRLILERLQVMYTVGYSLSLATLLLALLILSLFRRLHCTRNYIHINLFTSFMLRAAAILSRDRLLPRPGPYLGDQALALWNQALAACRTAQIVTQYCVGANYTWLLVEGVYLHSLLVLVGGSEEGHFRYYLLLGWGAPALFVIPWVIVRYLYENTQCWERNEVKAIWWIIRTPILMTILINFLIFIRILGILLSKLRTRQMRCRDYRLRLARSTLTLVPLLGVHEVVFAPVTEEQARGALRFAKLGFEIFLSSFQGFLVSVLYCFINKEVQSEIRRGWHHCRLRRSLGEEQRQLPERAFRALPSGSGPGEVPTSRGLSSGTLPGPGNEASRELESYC
Method: as §1

[6] = target: T4, human GLP-2 receptor (human, UniProt O95838 1-553); experiment: cell-based or functional assay
T4 sequence (looked up): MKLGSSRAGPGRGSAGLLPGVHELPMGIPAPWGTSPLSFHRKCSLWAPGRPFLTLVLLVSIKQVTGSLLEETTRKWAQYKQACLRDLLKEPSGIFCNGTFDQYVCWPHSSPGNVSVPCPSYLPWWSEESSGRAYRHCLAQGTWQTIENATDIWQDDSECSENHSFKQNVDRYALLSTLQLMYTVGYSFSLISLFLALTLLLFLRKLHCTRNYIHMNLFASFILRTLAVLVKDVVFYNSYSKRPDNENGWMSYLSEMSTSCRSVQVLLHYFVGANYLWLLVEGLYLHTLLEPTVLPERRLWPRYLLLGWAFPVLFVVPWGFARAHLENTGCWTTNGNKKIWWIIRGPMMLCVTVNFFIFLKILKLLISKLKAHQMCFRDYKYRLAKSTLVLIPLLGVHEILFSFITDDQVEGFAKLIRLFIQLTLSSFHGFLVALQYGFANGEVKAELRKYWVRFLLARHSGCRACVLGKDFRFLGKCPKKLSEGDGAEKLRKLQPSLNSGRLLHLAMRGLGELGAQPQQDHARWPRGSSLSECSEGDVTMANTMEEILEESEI

T1 sequence (P43220 24-463): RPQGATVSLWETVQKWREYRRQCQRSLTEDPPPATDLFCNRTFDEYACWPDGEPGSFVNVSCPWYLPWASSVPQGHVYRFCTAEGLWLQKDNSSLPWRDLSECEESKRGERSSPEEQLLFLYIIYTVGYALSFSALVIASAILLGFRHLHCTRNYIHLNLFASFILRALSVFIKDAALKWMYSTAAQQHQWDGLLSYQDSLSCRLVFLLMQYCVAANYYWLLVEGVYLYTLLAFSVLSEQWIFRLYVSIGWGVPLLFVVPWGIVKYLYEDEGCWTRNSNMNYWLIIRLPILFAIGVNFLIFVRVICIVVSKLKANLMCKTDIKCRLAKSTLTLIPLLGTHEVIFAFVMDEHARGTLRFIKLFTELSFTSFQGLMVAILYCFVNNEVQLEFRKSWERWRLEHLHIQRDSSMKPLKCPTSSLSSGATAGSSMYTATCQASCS
T2 sequence (P47871 26-477): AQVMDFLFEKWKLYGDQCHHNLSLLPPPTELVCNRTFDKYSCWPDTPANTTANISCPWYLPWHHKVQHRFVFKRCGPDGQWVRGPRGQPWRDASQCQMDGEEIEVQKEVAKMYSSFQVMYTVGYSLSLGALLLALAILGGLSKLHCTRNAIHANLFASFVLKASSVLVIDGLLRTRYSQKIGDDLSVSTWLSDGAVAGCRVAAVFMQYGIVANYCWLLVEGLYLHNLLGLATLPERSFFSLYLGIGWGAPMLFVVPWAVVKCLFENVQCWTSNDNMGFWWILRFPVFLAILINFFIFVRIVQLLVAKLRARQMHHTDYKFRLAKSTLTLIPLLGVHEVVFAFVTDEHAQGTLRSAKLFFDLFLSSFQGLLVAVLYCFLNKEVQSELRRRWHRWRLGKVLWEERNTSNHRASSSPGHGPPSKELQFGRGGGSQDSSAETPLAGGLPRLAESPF

| Molecule | Emax [1] [%] | Tmax [2] [min] | Median Response Strength in positive donors (CDI) [3] | Emax [4] [%] | Emax at 9.95 µM [5] [%] | EC50 [5] [µM] | Cmax ([2]; Cmax) [ng/mL] | half-life ([2]; T1/2) [min] | cAMP EC50 [6] [nM] |
| --- | --- | --- | --- | --- | --- | --- | --- | --- | --- |
| CC(=O)NCC[C@H](NC(=O)[C@H](CO)NC(=O)[C@@H](N)Cc1c[nH]cn1)C(=O)NCC(=O)N[C@H](C(=O)N[C@@H](Cc1ccccc1)C(=O)N[C@H](C(=O)N[C@@H](CO)C(=O)N[C@@H](CC(=O)O)C(=O)N[C@@H](Cc1ccc(O)cc1)C(=O)N[C@@H](CO)C(=O)N[C@@H](CCCCN)C(=O)N[C@@H](Cc1ccc(O)cc1)C(=O)N[C@@H](CC(C)C)C(=O)N[C@@H](CC(=O)O)C(=O)NC(C)(C)C(=O)N[C@@H](CCCNC(=N)N)C(=O)N[C@@H](CCCNC(=N)N)C(=O)N[C@@H](C)C(=O)N[C@@H](CCC(N)=O)C(=O)N[C@@H](CCC(N)=O)C(=O)N[C@@H](Cc1ccccc1)C(=O)N[C@H](C(=O)N[C@@H](CCCCN)C(=O)N[C@@H](Cc1ccncc1)C(=O)N[C@@H](CC(C)C)C(=O)N[C@@H](CC(C)C)C(=O)N[C@@H](CO)C(=O)N[C@H](C(=O)O)[C@@H](C)O)C(C)C)[C@@H](C)O)[C@@H](C)O [Example 4] (H-HS[Dab](Ac)GTFTSDYSKYLD[Aib]RRAQQFVK[4Pal]LLST-OH; N-terminus assumed) | 100 ± 5 | 25 | 6.42 | 98 ± 2 | < 5 | > 9.95 |  |  |  |
| CC(C)C[C@H](NC(=O)[C@H](Cc1ccncc1)NC(=O)[C@H](CCCCN)NC(=O)[C@@H](NC(=O)[C@H](Cc1ccccc1)NC(=O)[C@H](CCC(N)=O)NC(=O)[C@H](CCC(N)=O)NC(=O)[C@H](C)NC(=O)[C@H](CCCNC(=N)N)NC(=O)[C@H](CCCNC(=N)N)NC(=O)C(C)(C)NC(=O)[C@H](CC(=O)O)NC(=O)[C@H](CC(C)C)NC(=O)[C@H](Cc1ccc(O)cc1)NC(=O)[C@H](CCCCN)NC(=O)[C@H](CO)NC(=O)[C@H](Cc1ccc(O)cc1)NC(=O)[C@H](CC(=O)O)NC(=O)[C@H](CO)NC(=O)[C@@H](NC(=O)[C@H](Cc1ccccc1)NC(=O)[C@@H](NC(=O)CNC(=O)[C@H](CCC(N)=O)NC(=O)[C@H](CO)NC(=O)[C@@H](N)Cc1c[nH]cn1)[C@@H](C)O)[C@@H](C)O)C(C)C)C(=O)N[C@@H](CC(C)C)C(=O)N[C@@H](CO)C(=O)N[C@H](C(=O)O)[C@@H](C)O [Example 1] (H-HSQGTFTSDYSKYLD[Aib]RRAQQFVK[4Pal]LLST-OH; N-terminus assumed) | 105 ± 2 | 20 |  | 103 ± 2 | < 5 | > 9.95 |  |  |  |
| CC(=O)NCC[C@H](NC(=O)[C@H](CO)NC(=O)[C@@H](N)Cc1c[nH]cn1)C(=O)NCC(=O)N[C@H](C(=O)N[C@@H](Cc1ccccc1)C(=O)N[C@H](C(=O)N[C@@H](CO)C(=O)N[C@@H](CC(=O)O)C(=O)N[C@@H](Cc1ccc(O)cc1)C(=O)N[C@@H](CO)C(=O)N[C@@H](CCCCN)C(=O)N[C@@H](Cc1ccc(O)cc1)C(=O)N[C@@H](CC(C)C)C(=O)N[C@@H](CC(=O)O)C(=O)NC(C)(C)C(=O)N[C@@H](CCCNC(=N)N)C(=O)N[C@@H](CCCNC(=N)N)C(=O)N[C@@H](C)C(=O)N[C@@H](CCC(N)=O)C(=O)N[C@@H](C)C(=O)N[C@@H](Cc1ccccc1)C(=O)N[C@H](C(=O)N[C@@H](CCCCN)C(=O)N[C@@H](Cc1ccncc1)C(=O)N[C@@H](CC(C)C)C(=O)N[C@@H](CC(C)C)C(=O)N[C@@H](CO)C(=O)N[C@H](C(=O)O)[C@@H](C)O)C(C)C)[C@@H](C)O)[C@@H](C)O [Example 3] | 109 ± 5 |  | 6.5 |  | < 5 | > 9.95 | 1.8 | 26.8 |  |
| HADGSFSDEMNTILDNLAARDFINWLIQTKITDR-OH [GLP-2 (1-34) acid] |  |  |  |  |  |  |  |  | 0.016 |
